The record followed here is paper PMC8115619, “Generation of a chemical genetic model for JAK3” (Scientific Reports, 2021).

Experiment [1] relates to IL-4 induced STAT6 phosphorylation in spleenocytes. Nature of the experiment: IL-4 induced STAT6 phosphorylation in spleenocytes. The class given is cell-based, mouse. Particulars: wild type mice, inhibitor 1 h, 10 ng/ml IL-4 30 min. On the procedure:
(A) Single cell suspensions were prepared from the spleens of wild type mice. […] Cells were then stimulated with 10 ng/ml IL-4 for 30 min and the levels of phosphorylated STAT6 determined by immunoblotting. (B) As (A) except cells were stimulated with 10 ng/ml IL-2 and the levels of phosphorylated STAT5 determined. (C) CD8 T cells were expanded from the lymph nodes of wild type and JAK3 Cys905Ser knockin mice. Cells were rested in the absence of IL-2 for 60 min then incubated with the indicated concentrations of PF-06651600 for a further 30 min before stimulation with 10 ng/ml of IL-2 for 30 min. The levels of phosphorylated STAT5 and total ERK1/2 were then determined.
Cells were lysed directly into SDS sample buffer and aliquots run on 10% polyacrylamide gels using standard methods. Proteins were transferred onto nitrocellulose membranes, and specific proteins were detected by immunoblotting. […] Bands were detected using Clarity ECL reagents from BioRad and imaged on a Licor Odyssey Fc system. Quantification was carried out using Licor Image Studio software. After correction for the ERK1/2 levels to account for loading differences, percentage inhibition was calculated relative to the IL-4 stimulated condition. IC50 values were calculated using the same methods as for the in vitro IC50 values.

The next experiment deals with PIM3 (Homo sapiens, UniProt Q86V86). The experiment is described as follows: Selectivity screen PIM3. The class given is biochemical. Particulars: 1 µM inhibitor, mean. On the procedure: (§1) For the in vitro kinase assay, JAK3 (5–20 mU diluted in 50 mM Tris pH 7.5, 0.1 mM EGTA, 0.05% β-mercaptoethanol, 1 mg/ml BSA) was assayed against PDKtide ([…]) in a final volume of 25.5 µl containing 50 mM Tris pH 7.5, 0.1 mM EGTA, 0.05% β-mercaptoethanol, 100 µM substrate peptide, 10 mM magnesium acetate and 0.02 mM [33P-γ-ATP] (50–1000 cpm/pmole) and incubated for 30 min at room temperature. Assays were started by the addition of the ATP and stopped by addition of 5 µl of 0.5 M (3%) orthophosphoric acid and then harvested onto P81 Unifilter plates with a wash buffer of 50 mM orthophosphoric acid. To determine the Km for ATP, assays were run using 1, 5, 10, 20, 50, 100, 200, 400, 500 μM ATP and Km derived by non-linear regression fitting to the Michaelis–Menten equation v = Vmax[S]/(Km + [S]). IC50 values for inhibitors via non-linear regression using a parameter model: Y = Bottom + (Top–Bottom)/(1 + (IC50/X)^HillSlope). Non-linear regression was carried out in Prism (version 8). In vitro selectivity screen was carried out as described previously.

Another experiment concerns the target EF2K (Homo sapiens, UniProt O00418). The experiment is described as follows: Selectivity screen EF2K. Particulars: 1 µM inhibitor, mean. Format: biochemical. As to the method: as §1
For another experiment, the target named is HIPK3 (Homo sapiens, UniProt Q9H422). The experiment is described as follows: Selectivity screen HIPK3. Format: biochemical. Particulars: 1 µM inhibitor, mean. As to the method: as §1
The next experiment deals with HIPK2 (Homo sapiens, UniProt Q9H2X6). The experiment is described as follows: Selectivity screen HIPK2. The class given is biochemical. Particulars: 1 µM inhibitor, mean. As to the method: as §1
A further experiment deals with p38a MAPK (Homo sapiens, UniProt Q16539). Nature of the experiment: Selectivity screen p38a MAPK. Particulars: 1 µM inhibitor, mean. Format: biochemical. On the procedure:
as §1

The next experiment concerns the target CLK2 (Homo sapiens, UniProt P49760). The experiment is described as follows: Selectivity screen CLK2. Format: biochemical. Particulars: 1 µM inhibitor, mean. As to the method:
as §1

A further experiment has as its target FGF-R1 (Homo sapiens, UniProt P11362). Nature of the experiment: Selectivity screen FGF-R1. Particulars: 1 µM inhibitor, mean. Format: biochemical. On the procedure:
as §1

Another experiment addresses TIE2 (Homo sapiens, UniProt Q02763). Nature of the experiment: Selectivity screen TIE2. The class given is biochemical. Particulars: 1 µM inhibitor, mean. On the procedure:
as §1

The next experiment has as its target TGFBR1 (Homo sapiens, UniProt P36897). The experiment is described as follows: Selectivity screen TGFBR1. Particulars: 1 µM inhibitor, mean. The class given is biochemical. On the procedure: as §1
For the next experiment, the target named is MARK3 (Homo sapiens, UniProt P27448). Nature of the experiment: Selectivity screen MARK3. The class given is biochemical. Particulars: 1 µM inhibitor, mean. As to the method:
as §1

Another experiment has as its target MINK1 (Homo sapiens, UniProt Q8N4C8). The experiment is described as follows: Selectivity screen MINK1. Particulars: 1 µM inhibitor, mean. Format: biochemical. As to the method:
as §1

The next experiment has as its target MST3 (Homo sapiens, UniProt Q9Y6E0). Nature of the experiment: Selectivity screen MST3. The class given is biochemical. Particulars: 1 µM inhibitor, mean. As to the method:
as §1

A further experiment has as its target NUAK1 (Homo sapiens, UniProt O60285). Nature of the experiment: Selectivity screen NUAK1. Format: biochemical. Particulars: 1 µM inhibitor, mean. As to the method:
as §1

Another experiment addresses CHK1 (Homo sapiens, UniProt O14757). Nature of the experiment: Selectivity screen CHK1. Format: biochemical. Particulars: 1 µM inhibitor, mean. As to the method:
as §1

The next experiment concerns the target GCK (Homo sapiens, UniProt Q12851). Nature of the experiment: Selectivity screen GCK. The class given is biochemical. Particulars: 1 µM inhibitor, mean. As to the method: as §1
The next experiment has as its target JNK3 (Homo sapiens, UniProt P53779). Nature of the experiment: Selectivity screen JNK3. Format: biochemical. Particulars: 1 µM inhibitor, mean. On the procedure:
as §1

Another experiment has as its target HER4 (Homo sapiens, UniProt Q15303). The experiment is described as follows: Selectivity screen HER4. Format: biochemical. Particulars: 1 µM inhibitor, mean. On the procedure:
as §1

A further experiment deals with BRSK2 (Homo sapiens, UniProt Q8IWQ3). The experiment is described as follows: Selectivity screen BRSK2. Particulars: 1 µM inhibitor, mean. The class given is biochemical. On the procedure:
as §1

Another experiment deals with SRPK1 (Homo sapiens, UniProt Q96SB4). Nature of the experiment: Selectivity screen SRPK1. The class given is biochemical. Particulars: 1 µM inhibitor, mean. As to the method:
as §1

The target in a further experiment is EPH-B4 (Homo sapiens, UniProt P54760). The experiment is described as follows: Selectivity screen EPH-B4. Format: biochemical. Particulars: 1 µM inhibitor, mean. As to the method:
as §1

The next experiment deals with MLK3 (Homo sapiens, UniProt Q16584). Nature of the experiment: Selectivity screen MLK3. Particulars: 1 µM inhibitor, mean. The class given is biochemical. On the procedure: as §1
A further experiment concerns the target SmMLCK (Homo sapiens, UniProt Q15746). Nature of the experiment: Selectivity screen SmMLCK. The class given is biochemical. Particulars: 1 µM inhibitor, mean. As to the method:
as §1

Another experiment addresses p38d MAPK (Homo sapiens, UniProt O15264). Nature of the experiment: Selectivity screen p38d MAPK. Particulars: 1 µM inhibitor, mean. Format: biochemical. On the procedure:
as §1

The target of a further experiment is TESK1 (Homo sapiens, UniProt Q15569). Nature of the experiment: Selectivity screen TESK1. Particulars: 1 µM inhibitor, mean. Format: biochemical. On the procedure: as §1
Another experiment concerns the target TLK1 (Homo sapiens, UniProt Q9UKI8). The experiment is described as follows: Selectivity screen TLK1. Format: biochemical. Particulars: 1 µM inhibitor, mean. On the procedure: as §1
A further experiment addresses PRAK (Homo sapiens, UniProt Q8IW41). Nature of the experiment: Selectivity screen PRAK. Format: biochemical. Particulars: 1 µM inhibitor, mean. As to the method:
as §1

Sequence of MINK1 (Q8N4C8 whole entry): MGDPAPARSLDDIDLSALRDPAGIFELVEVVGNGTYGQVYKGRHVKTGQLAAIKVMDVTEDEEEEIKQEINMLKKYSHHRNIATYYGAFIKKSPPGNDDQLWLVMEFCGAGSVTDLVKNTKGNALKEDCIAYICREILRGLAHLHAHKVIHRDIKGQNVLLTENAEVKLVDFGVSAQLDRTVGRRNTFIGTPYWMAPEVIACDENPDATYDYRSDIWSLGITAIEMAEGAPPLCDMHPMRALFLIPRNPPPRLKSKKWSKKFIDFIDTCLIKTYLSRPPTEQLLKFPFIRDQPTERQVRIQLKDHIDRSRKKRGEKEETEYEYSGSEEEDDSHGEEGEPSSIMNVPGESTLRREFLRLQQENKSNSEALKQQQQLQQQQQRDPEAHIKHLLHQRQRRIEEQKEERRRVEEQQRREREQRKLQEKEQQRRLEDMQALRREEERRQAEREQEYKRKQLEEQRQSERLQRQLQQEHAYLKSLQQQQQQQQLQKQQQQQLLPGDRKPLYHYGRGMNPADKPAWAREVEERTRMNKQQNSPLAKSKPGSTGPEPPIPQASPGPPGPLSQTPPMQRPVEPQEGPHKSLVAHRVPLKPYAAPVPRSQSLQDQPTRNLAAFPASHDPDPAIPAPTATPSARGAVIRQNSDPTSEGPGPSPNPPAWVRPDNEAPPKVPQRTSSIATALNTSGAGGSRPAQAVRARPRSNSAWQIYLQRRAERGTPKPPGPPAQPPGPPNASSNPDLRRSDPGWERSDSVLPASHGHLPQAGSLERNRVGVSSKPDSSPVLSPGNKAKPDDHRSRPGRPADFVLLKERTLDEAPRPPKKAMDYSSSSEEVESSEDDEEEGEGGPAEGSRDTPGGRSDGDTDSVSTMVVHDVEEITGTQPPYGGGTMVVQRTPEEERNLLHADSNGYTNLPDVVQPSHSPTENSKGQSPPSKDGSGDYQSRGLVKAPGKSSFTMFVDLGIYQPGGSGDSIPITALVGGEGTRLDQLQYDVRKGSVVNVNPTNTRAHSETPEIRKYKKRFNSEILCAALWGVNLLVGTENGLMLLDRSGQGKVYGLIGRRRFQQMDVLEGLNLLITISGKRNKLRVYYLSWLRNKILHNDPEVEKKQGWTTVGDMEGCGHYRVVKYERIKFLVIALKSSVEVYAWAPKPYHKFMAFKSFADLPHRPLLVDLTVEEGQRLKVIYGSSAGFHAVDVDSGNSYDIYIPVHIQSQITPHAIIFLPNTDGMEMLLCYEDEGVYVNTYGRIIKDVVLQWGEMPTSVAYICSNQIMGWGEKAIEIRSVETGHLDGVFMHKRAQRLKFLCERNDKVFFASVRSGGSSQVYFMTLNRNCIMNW
Sequence of FGF-R1 (P11362 22-822): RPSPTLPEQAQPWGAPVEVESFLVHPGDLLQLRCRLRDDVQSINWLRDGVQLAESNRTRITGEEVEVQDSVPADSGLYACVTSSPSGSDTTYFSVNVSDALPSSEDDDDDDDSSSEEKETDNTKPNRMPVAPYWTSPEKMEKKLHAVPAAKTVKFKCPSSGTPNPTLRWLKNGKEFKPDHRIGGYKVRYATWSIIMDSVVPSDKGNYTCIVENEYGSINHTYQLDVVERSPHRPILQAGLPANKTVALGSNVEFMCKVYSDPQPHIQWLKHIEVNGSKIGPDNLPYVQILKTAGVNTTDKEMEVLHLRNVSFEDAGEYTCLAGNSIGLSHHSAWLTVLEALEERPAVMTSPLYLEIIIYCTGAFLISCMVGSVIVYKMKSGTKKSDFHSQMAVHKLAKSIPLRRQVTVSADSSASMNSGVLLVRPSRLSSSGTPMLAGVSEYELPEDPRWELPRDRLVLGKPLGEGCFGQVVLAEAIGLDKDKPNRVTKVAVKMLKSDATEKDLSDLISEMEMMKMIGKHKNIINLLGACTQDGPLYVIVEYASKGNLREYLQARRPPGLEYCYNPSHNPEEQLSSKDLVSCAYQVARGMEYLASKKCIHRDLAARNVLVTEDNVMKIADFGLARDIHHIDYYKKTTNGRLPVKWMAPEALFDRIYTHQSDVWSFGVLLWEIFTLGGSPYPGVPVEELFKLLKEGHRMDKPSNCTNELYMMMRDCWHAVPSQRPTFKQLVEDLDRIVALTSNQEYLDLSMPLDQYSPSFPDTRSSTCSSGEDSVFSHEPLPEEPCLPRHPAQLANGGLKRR
Sequence of HIPK3 (Q9H422 whole entry): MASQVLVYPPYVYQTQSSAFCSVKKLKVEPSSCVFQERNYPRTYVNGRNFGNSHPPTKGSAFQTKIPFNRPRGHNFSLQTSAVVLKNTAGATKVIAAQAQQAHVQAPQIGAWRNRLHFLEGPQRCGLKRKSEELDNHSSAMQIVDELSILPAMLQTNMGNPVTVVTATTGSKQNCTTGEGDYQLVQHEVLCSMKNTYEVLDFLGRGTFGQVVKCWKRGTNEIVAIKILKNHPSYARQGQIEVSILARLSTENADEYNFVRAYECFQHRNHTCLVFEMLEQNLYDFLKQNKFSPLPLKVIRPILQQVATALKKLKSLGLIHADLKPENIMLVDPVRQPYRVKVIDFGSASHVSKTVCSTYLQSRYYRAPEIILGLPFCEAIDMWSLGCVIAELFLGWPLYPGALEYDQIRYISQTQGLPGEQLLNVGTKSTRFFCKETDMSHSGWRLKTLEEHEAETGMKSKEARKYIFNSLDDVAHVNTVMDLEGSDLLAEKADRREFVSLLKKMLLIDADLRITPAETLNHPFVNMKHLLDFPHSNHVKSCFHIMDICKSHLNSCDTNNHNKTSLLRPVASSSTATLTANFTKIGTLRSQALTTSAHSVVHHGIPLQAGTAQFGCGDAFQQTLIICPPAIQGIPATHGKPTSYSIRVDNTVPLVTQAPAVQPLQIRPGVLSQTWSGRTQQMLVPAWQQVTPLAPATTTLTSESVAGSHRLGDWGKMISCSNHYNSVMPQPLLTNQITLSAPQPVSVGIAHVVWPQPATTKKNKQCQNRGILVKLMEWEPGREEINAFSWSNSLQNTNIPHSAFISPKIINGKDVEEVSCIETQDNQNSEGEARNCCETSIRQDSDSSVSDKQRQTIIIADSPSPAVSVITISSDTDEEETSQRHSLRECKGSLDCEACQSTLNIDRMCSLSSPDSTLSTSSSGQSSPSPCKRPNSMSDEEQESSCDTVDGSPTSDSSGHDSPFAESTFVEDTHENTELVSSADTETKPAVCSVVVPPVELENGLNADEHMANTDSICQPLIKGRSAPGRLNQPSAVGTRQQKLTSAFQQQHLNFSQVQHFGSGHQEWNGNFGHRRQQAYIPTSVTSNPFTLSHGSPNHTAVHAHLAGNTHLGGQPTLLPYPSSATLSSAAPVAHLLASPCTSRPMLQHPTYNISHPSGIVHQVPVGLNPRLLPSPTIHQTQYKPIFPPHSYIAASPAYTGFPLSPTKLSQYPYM
Sequence of SRPK1 (Q96SB4 whole entry): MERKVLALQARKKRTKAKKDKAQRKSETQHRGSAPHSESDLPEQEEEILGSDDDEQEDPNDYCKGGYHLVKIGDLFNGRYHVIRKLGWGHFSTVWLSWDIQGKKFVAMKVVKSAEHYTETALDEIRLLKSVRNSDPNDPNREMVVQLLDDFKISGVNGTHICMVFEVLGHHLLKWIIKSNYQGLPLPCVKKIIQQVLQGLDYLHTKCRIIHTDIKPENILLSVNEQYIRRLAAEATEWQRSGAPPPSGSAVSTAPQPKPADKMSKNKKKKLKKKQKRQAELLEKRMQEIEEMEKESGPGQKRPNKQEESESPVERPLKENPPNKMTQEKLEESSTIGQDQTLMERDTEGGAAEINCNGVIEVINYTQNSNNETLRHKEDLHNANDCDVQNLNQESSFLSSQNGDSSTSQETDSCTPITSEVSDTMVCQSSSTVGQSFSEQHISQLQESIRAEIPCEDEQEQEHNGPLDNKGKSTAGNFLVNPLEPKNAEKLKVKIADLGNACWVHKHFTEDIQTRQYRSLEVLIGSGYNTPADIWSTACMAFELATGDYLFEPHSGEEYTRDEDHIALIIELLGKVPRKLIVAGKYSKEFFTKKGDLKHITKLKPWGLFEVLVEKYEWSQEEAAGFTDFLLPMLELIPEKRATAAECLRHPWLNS
Sequence of p38a MAPK (Q16539 whole entry): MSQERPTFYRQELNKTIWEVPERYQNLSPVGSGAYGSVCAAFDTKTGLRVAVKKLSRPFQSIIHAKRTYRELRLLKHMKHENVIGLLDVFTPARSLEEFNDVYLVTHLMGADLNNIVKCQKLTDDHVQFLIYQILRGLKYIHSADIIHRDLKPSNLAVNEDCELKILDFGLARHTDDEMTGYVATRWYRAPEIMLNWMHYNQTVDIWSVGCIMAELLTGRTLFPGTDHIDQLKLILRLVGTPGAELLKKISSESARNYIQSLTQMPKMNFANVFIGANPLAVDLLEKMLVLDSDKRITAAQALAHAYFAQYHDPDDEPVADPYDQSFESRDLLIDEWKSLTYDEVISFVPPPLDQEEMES
Sequence of NUAK1 (O60285 whole entry): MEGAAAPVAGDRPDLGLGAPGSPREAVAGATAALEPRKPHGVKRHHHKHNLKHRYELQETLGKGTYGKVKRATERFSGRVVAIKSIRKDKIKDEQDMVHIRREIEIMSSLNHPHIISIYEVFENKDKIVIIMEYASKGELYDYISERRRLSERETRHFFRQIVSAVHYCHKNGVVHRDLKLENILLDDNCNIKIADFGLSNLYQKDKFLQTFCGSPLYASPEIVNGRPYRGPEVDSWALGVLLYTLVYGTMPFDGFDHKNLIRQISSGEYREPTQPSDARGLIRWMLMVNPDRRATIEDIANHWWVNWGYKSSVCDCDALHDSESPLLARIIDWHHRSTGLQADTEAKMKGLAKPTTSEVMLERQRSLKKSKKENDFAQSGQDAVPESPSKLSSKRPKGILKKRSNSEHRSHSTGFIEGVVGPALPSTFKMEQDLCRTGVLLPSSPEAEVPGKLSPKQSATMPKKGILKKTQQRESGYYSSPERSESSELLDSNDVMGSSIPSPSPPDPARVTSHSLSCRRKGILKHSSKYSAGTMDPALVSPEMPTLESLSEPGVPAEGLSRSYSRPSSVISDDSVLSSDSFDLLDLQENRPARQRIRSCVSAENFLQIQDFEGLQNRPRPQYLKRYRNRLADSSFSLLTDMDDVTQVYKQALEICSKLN

Turning to `C=CC(=O)N1C[C@H](Nc2ncnc3[nH]ccc23)CC[C@@H]1C` [PF-06651600, 1-((2S,5R)-5-((7H-Pyrrolo[2,3-d]pyrimidin-4-yl)amino)-2-methylpiperidin-1-yl)prop-2-en-1-one, reference compound], the “block of IL-4 induced STAT6 phosphorylation in spleenocytes” value in experiment [1] was “able to block”.
As to `C=CC(=O)Nc1cccc(CNc2nc(Nc3ccc(N4CCN(C)CC4)cc3OC)ncc2Cl)c1` [TL6-144], the “activity remaining in the presence of the inhibitor: PIM3” value on PIM3 is listed as 100. For the same compound, the “activity remaining in the presence of the inhibitor: EF2K” value on EF2K came to 95. Further, the “activity remaining in the presence of the inhibitor: HIPK3” value at HIPK3 was 91. The “activity remaining in the presence of the inhibitor: HIPK2” value at HIPK2 amounted to 87. The “activity remaining in the presence of the inhibitor: p38a MAPK” value at p38a MAPK was 96. On CLK2, the “activity remaining in the presence of the inhibitor: CLK2” value amounted to 62. Moreover, the “activity remaining in the presence of the inhibitor: FGF-R1” value at FGF-R1 was found to be 44. At TIE2, the “activity remaining in the presence of the inhibitor: TIE2” value is on record as 87. Further, the “activity remaining in the presence of the inhibitor: TGFBR1” value on TGFBR1 amounted to 83. The “activity remaining in the presence of the inhibitor: MARK3” value on MARK3 is 48. In addition, the “activity remaining in the presence of the inhibitor: MINK1” value at MINK1 turned out to be 80. Also, the “activity remaining in the presence of the inhibitor: MST3” value at MST3 was found to be 99. Further, the “activity remaining in the presence of the inhibitor: NUAK1” value on NUAK1 came to 4. The “activity remaining in the presence of the inhibitor: CHK1” value on CHK1 turned out to be 93. In addition, the “activity remaining in the presence of the inhibitor: GCK” value on GCK came out at 92. Moreover, the “activity remaining in the presence of the inhibitor: JNK3” value on JNK3 is listed as 87. Further, at HER4, the “activity remaining in the presence of the inhibitor: HER4” value came out at 9. Also, on BRSK2, the “activity remaining in the presence of the inhibitor: BRSK2” value turned out to be 90. Besides, the “activity remaining in the presence of the inhibitor: SRPK1” value at SRPK1 is 91. Moreover, the “activity remaining in the presence of the inhibitor: EPH-B4” value on EPH-B4 is given as 83. In addition, the “activity remaining in the presence of the inhibitor: MLK3” value on MLK3 amounted to 31. Moreover, the “activity remaining in the presence of the inhibitor: SmMLCK” value at SmMLCK is recorded as 62. For the same compound, at p38d MAPK, the “activity remaining in the presence of the inhibitor: p38d MAPK” value came to 94. Also, at TESK1, the “activity remaining in the presence of the inhibitor: TESK1” value is 99. Further, on TLK1, the “activity remaining in the presence of the inhibitor: TLK1” value is 102. Also, the “activity remaining in the presence of the inhibitor: PRAK” value on PRAK is on record as 93.
As to `C=CC(=O)Nc1cccc(CNc2nc(Nc3ccc(N4CCOCC4)cc3)ncc2Cl)c1` [TL8-52], the “activity remaining in the presence of the inhibitor: PIM3” value at PIM3 came to 90. Also, the “activity remaining in the presence of the inhibitor: EF2K” value on EF2K is reported as 105. The “activity remaining in the presence of the inhibitor: HIPK3” value at HIPK3 was 107. The “activity remaining in the presence of the inhibitor: HIPK2” value at HIPK2 turned out to be 97. Besides, the “activity remaining in the presence of the inhibitor: p38a MAPK” value at p38a MAPK was determined as 119. Further, on CLK2, the “activity remaining in the presence of the inhibitor: CLK2” value is on record as 29. Moreover, the “activity remaining in the presence of the inhibitor: FGF-R1” value at FGF-R1 came to 49. For the same compound, the “block of IL-4 induced STAT6 phosphorylation in spleenocytes” value in experiment [1] is “able to block”. The “activity remaining in the presence of the inhibitor: TIE2” value at TIE2 came to 116. The “activity remaining in the presence of the inhibitor: TGFBR1” value at TGFBR1 is recorded as 104. In addition, on MARK3, the “activity remaining in the presence of the inhibitor: MARK3” value is 21. The “activity remaining in the presence of the inhibitor: MINK1” value at MINK1 is given as 80. The “activity remaining in the presence of the inhibitor: MST3” value on MST3 was determined as 97. Moreover, on NUAK1, the “activity remaining in the presence of the inhibitor: NUAK1” value is given as 3. For the same compound, the “activity remaining in the presence of the inhibitor: CHK1” value on CHK1 was 91. Further, the “activity remaining in the presence of the inhibitor: GCK” value at GCK was 21. In addition, the “activity remaining in the presence of the inhibitor: JNK3” value on JNK3 stood at 69. On HER4, the “activity remaining in the presence of the inhibitor: HER4” value is listed as 31. For the same compound, at BRSK2, the “activity remaining in the presence of the inhibitor: BRSK2” value turned out to be 87. In addition, on SRPK1, the “activity remaining in the presence of the inhibitor: SRPK1” value came to 97. The “activity remaining in the presence of the inhibitor: EPH-B4” value at EPH-B4 worked out at 104. Besides, on MLK3, the “activity remaining in the presence of the inhibitor: MLK3” value stood at 3. Further, on SmMLCK, the “activity remaining in the presence of the inhibitor: SmMLCK” value stood at 98. For the same compound, the “activity remaining in the presence of the inhibitor: p38d MAPK” value at p38d MAPK is reported as 93. Besides, the “activity remaining in the presence of the inhibitor: TESK1” value on TESK1 amounted to 91. Also, the “activity remaining in the presence of the inhibitor: TLK1” value at TLK1 is listed as 82. Besides, at PRAK, the “activity remaining in the presence of the inhibitor: PRAK” value turned out to be 113.
